The values that follow come from paper PMC6934184, “Selective DNA-PKcs inhibition extends the therapeutic index of localized radiotherapy and chemotherapy” (The Journal of Clinical Investigation, 2019).

This assay deals with T1, WNK3 (Homo sapiens, UniProt Q9BYP7).
T1 construct: purchased Thermo Fisher Scientific (Life Technologies) SelectScreen
Description: SelectScreen LanthaScreen. To be noted: read-out: % displacement. The format is binding. The method, boiled down:
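NU5455 was profiled across the SelectScreen Broad panel of kinase activity and binding assays. Z'LYTE reactions such as CSF1R ran at apparent Km ATP, while the Adapta CAMK1 assay used ATP listed as 10. Values are given as percent.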
Background: TR-FRET usually uses a lanthanide donor and a delayed reading to cut background.

Each structure is given as a SMILES string.

T1 sequence (Q9BYP7 whole entry): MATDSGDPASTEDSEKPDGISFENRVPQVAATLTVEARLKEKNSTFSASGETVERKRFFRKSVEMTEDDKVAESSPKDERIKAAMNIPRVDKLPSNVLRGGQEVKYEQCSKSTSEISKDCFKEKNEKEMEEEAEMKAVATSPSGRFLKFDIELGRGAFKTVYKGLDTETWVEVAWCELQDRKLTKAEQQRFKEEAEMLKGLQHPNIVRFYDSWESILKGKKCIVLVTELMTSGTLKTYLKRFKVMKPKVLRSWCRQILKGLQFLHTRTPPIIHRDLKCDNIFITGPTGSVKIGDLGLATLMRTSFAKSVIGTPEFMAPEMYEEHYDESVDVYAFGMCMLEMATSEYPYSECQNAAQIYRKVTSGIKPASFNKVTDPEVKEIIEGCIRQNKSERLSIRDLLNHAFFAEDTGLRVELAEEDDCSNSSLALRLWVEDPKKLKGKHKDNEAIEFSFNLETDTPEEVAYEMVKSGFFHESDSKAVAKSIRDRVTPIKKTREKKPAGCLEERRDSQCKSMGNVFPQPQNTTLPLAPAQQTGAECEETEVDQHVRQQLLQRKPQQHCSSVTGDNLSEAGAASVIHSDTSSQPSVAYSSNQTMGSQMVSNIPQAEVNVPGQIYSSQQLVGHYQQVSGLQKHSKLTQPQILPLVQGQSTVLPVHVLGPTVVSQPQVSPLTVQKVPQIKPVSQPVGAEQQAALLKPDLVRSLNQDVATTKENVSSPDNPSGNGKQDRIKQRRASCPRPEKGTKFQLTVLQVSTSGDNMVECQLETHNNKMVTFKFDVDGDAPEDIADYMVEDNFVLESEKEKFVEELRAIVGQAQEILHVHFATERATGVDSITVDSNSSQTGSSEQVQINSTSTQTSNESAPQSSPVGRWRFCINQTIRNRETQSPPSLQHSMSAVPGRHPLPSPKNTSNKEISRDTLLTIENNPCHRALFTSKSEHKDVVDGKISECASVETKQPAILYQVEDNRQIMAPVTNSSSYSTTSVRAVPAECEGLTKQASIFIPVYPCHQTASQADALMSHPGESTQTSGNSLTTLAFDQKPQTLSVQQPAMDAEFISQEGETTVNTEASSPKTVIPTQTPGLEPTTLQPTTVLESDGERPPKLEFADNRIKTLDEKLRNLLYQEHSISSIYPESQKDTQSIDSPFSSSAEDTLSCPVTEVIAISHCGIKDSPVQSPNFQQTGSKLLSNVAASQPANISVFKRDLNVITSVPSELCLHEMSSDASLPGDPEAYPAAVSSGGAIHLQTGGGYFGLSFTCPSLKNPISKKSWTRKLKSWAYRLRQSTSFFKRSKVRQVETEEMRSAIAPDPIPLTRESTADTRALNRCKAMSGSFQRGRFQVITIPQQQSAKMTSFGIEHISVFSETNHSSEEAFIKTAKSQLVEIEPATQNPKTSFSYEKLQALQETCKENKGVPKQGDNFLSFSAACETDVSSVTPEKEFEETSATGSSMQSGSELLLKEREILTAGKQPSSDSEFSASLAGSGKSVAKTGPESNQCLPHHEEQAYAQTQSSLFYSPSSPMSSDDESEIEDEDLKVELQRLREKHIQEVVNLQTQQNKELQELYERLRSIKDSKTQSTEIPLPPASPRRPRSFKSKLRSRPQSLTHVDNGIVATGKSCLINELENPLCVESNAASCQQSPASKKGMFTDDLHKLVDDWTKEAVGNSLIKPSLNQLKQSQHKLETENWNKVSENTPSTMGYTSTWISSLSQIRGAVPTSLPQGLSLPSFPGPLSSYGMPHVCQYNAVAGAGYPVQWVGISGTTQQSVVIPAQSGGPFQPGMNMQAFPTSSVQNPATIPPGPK

`CN(C(=O)CN1CCOCC1)c1ccc2sc3c(-c4cccc5c(=O)cc(N6CC7CCC(C6)O7)oc45)cccc3c2c1` [NU5455]: the inhibition at 1 µM was -1.2%.
